In ChEMBL document CHEMBL1201862, “PubChem BioAssay data set” (2004):
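The compound was tested at five concentrations on cells cultured in 96-well plates, with a 48-hour exposure period. GI50 is the concentration that inhibits growth by half.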 Activity calls are given as the source filed them. Rule as the data show it: active = GI50 up to about 1.1 µM and inactive = higher.

Legend:
Test in all cases: NCI anticancer screen, dose series, 48 h
BT-549 = tested on: BT-549
DMS-114 = tested on: DMS-114
DLD-1 = tested on: DLD-1
DMS-273 = tested on: DMS-273
SNB-78 = tested on: SNB-78
HOP-18 = tested on: HOP-18
KM-20L2 = tested on: KM-20L2
XF498 = tested on: XF498

CCOc1cc(NC(C)=O)ccc1C(=O)NNS(=O)(=O)c1ccc(Cl)cc1Cl
GI50 (BT-549): > 50 µM (inactive)

O=C1C(=C/C=C2/SC(c3ccccc3)(c3ccccc3)c3ccccc32)C(=O)c2ccccc21
GI50 (BT-549): > 100 µM (inactive)

COc1ccc(-c2cc(-c3cc(Cl)cc(Br)c3O)nc(O)n2)cc1
GI50 (DMS-114): 14.1 µM (inactive)
GI50 (DLD-1): 16.7 µM (inactive)
GI50 (DMS-273): 15 µM (inactive)
GI50 (SNB-78): 18.7 µM (inactive)
GI50 (HOP-18): 17.2 µM (inactive)
GI50 (KM-20L2): 19.1 µM (inactive)

O=[N+]([O-])c1ccc(/N=N/c2c(O)ccc3cc(S(=O)(=O)O)ccc23)cc1
GI50 (BT-549): > 100 µM (inactive)

NC1CC(Cl)c2c(Cl)sc(Cl)c21 (configuration not stated)
GI50 (BT-549): > 100 µM (inactive)

O=C1CC(c2ccccc2)Oc2ccccc21 (configuration not stated) [FLAVANONE]
GI50 (BT-549): 15.4 µM (inactive)

CC1(C)Oc2ccccc2N2O[C@@H]3C(=O)N(c4ccccc4)C(=O)[C@@H]3C21c1ccccc1 (some centres not stated)
GI50 (DMS-114): 23.2 µM (inactive)
GI50 (DLD-1): 25.1 µM (inactive)
GI50 (SNB-78): 35.5 µM (inactive)
GI50 (HOP-18): 24.3 µM (inactive)
GI50 (KM-20L2): 51.4 µM (inactive)

Cc1ccc(C)c(/C(=N\N=C(N)N)C2CC2)c1
GI50 (BT-549): 25.5 µM (inactive)

CN1c2ccccc2C2=C(c3ccccc3)CC[C@@H](C(=O)N3C4CC5CC[C@@]4(CS3(=O)=O)C5(C)C)[C@@H]21 (some centres not stated)
GI50 (BT-549): > 100 µM (inactive)

COC1=C(OC)C(=O)C(Cc2c(Cl)nc3sccn23)=C(C)C1=O
GI50 (BT-549): 14.4 µM (inactive)

CCN(CC)C(=O)CCn1ccc(=O)[nH]c1=O
GI50 (DMS-114): > 100 µM (inactive)
GI50 (DMS-273): > 100 µM (inactive)
GI50 (XF498): > 100 µM (inactive)
GI50 (SNB-78): > 100 µM (inactive)
GI50 (KM-20L2): > 100 µM (inactive)

COc1cc(S(=O)(=O)Nc2ccc(-c3csc(/N=C\C=C\c4ccccc4)n3)cc2)ccc1Cl
GI50 (BT-549): 39.1 µM (inactive)

Nc1nc(N)c2cc(-c3cc4ccccc4[nH]3)ccc2n1
GI50 (BT-549): 23 µM (inactive)

NC1=Nc2ccccc2Sc2nncn21
GI50 (BT-549): > 100 µM (inactive)

c1ccc(NNN2NC(c3ccccc3)C2c2ccccc2)cc1 (configuration not stated)
GI50 (BT-549): > 100 µM (inactive)

COC(=O)[C@@H]1CCc2nc3ccccc3c(=O)n21
GI50 (BT-549): > 100 µM (inactive)

CC(C)[Si]1(C(C)C)OCC2OC3(CO)C(Oc4nc(=O)ccn43)C2O[Si](C(C)C)(C(C)C)O1 (configuration not stated)
GI50 (BT-549): 11.6 µM (inactive)

COC(=O)Cc1c(-c2[nH]c3ccccc3c2CC(=O)OC)[nH]c2ccccc12
GI50 (BT-549): > 57.1 µM (inactive)

CC(CC(=O)CO[C@H]1[C@H](O)[C@@H](O)[C@@H](O)[C@@H]2NC(=O)c3c(cc4c(c3O)OCO4)[C@H]21)OC1OC(CO)C(O)C(O)C1O (some centres not stated)
GI50 (BT-549): 0.495 µM (active)

Cc1nn(C(=O)Cc2ccccc2)c2c1C(c1ccc([N+](=O)[O-])cc1)SC(=N)N2 (configuration not stated)
GI50 (BT-549): > 100 µM (inactive)

O=C1C=C(C2=C(C3=CC(=O)c4ccccc4C3=O)C(=O)c3ccccc3C2=O)C(=O)c2ccccc21
GI50 (BT-549): 14.6 µM (inactive)

COP(=O)(OC)C12CCOCCN1c1ccccc1C2=O (configuration not stated)
GI50 (BT-549): > 100 µM (inactive)

CSc1sc(=S)sc1C(=O)N(C)c1ccccc1
GI50 (DMS-114): > 100 µM (inactive)
GI50 (DMS-273): > 100 µM (inactive)
GI50 (XF498): > 100 µM (inactive)
GI50 (SNB-78): > 100 µM (inactive)
GI50 (KM-20L2): > 100 µM (inactive)

COc1ccc([C@H]2CC3C(=O)N(c4ccc(OC)cc4)C(=O)C3c3[nH]c4ccccc4c32)cc1 (some centres not stated)
GI50 (DMS-114): 87.9 µM (inactive)
GI50 (DLD-1): 93.8 µM (inactive)
GI50 (DMS-273): 14.8 µM (inactive)
GI50 (XF498): 32.7 µM (inactive)
GI50 (SNB-78): > 100 µM (inactive)
GI50 (KM-20L2): 69.5 µM (inactive)

OC(c1ccc(F)cc1)C(F)(F)c1nc2ccccc2o1 (configuration not stated)
GI50 (BT-549): > 100 µM (inactive)

COc1ccc2c(c1)C(=O)OCCC2
GI50 (BT-549): > 100 µM (inactive)

Cc1cc(N)c2cc(NC(=O)Nc3ccc4nc(C)cc(N)c4c3)ccc2n1
GI50 (BT-549): > 100 µM (inactive)

C[N+]12CCCCC1C(CN1C(=O)c3ccccc3C1=O)CCC2 (configuration not stated)
GI50 (BT-549): > 100 µM (inactive)

COC(=O)C1=C(C)N2[C@H](C(=O)O)CS[C@@]2(C)[C@H](C(=O)OC)[C@H]1c1cccc([N+](=O)[O-])c1
GI50 (BT-549): > 100 µM (inactive)

CCOc1cc2c(cc1O)C=C[C@@H]1[C@@H]2CC[C@]2(C)[C@@H](O)CC[C@@H]12
GI50 (BT-549): 13.9 µM (inactive)
